# Measurements from ChEMBL document CHEMBL4130415, “Discovery of new MD2-targeted anti-inflammatory compounds for the treatment of sepsis and acute lung injury” (Eur J Med Chem, 2017).
# Activity calls are given as the source filed them. The calls are words filed in the database; no cut-off is given here.
# Key:
# [1] = tested on: Mus musculus; assay: Antiinflammatory activity in C57BL/6 mouse assessed as reduction in LPS-induced inflammatory cell infiltration in lung at 10 mg/kg, iv pretreated for 15 mins followed by LPS challenge measured after 6 hrs by hematoxylin and eosin staining-based light microscopic analysis; assay type: functional, organism-based
# [2] = tested on: Mus musculus; assay: Antiinflammatory activity in LPS-induced C57BL/6 mouse assessed as mouse survival at 10 mg/kg, iv pretreated for 15 mins followed by LPS challenge measured after 7 days; assay type: functional, organism-based
# [3] = tested on: Mus musculus; assay: Antiinflammatory activity in C57BL/6 mouse assessed as reduction in LPS-induced total protein level in bronchoalveolar lavage fluid at 10 mg/kg, iv pretreated for 15 mins followed by LPS challenge measured after 6 hrs; assay type: functional, organism-based
# [4] = tested on: Mus musculus; assay: Antiinflammatory activity in C57BL/6 mouse assessed as reduction in LPS-induced wet to dry lung edema ratio at 10 mg/kg, iv pretreated for 15 mins followed by LPS challenge measured after 6 hrs; assay type: functional, organism-based
# [5] = tested on: Mus musculus; assay: Antiinflammatory activity in LPS-induced C57BL/6 mouse assessed as increase in immunoreactivity to CD68 in lung at 10 mg/kg, iv pretreated for 15 mins followed by LPS challenge measured after 6 hrs by immunohistochemical analysis; assay type: functional, organism-based
# [6] = tested on: Mus musculus; assay: Antiinflammatory activity in C57BL/6 mouse assessed as reduction in LPS-induced interalveolar septal thickening in lung at 10 mg/kg, iv pretreated for 15 mins followed by LPS challenge measured after 6 hrs by hematoxylin and eosin staining-based light microscopic analysis; assay type: functional, organism-based
# [7] = tested on: Peritoneal macrophage; assay: Antiinflammatory activity in ICR mouse primary peritoneal macrophages assessed as inhibition of LPS-induced IL-6 production pretreated for 2 hrs followed by LPS challenge measured after 22 hrs hrs by ELISA; assay type: functional, cell-based
# [8] = tested on: Mus musculus; assay: Antiinflammatory activity in C57BL/6 mouse assessed as reduction in LPS-induced TNF-alpha mRNA level in bronchoalveolar lavage fluid at 10 mg/kg, iv pretreated for 15 mins followed by LPS challenge measured after 6 hrs by qPCR analysis; assay type: functional, organism-based
# [9] = tested on: Peritoneal macrophage; assay: Antiinflammatory activity in ICR mouse primary peritoneal macrophages assessed as inhibition of Pam3CK-induced TNF-alpha production at 10 uM pretreated for 2 hrs followed by Pam3CK challenge measured after 12 hrs by ELISA; assay type: functional, cell-based
# [10] = tested on: Peritoneal macrophage; assay: Antiinflammatory activity in ICR mouse primary peritoneal macrophages assessed as inhibition of LPS-induced TNF-alpha production at 10 uM pretreated for 2 hrs followed by LPS challenge measured after 22 hrs by ELISA relative to control; assay type: functional
# [11] = tested on: Mus musculus; assay: Antiinflammatory activity in C57BL/6 mouse assessed as reduction in LPS-induced IL-1beta mRNA level in bronchoalveolar lavage fluid at 10 mg/kg, iv pretreated for 15 mins followed by LPS challenge measured after 6 hrs by qPCR analysis; assay type: functional, organism-based
# [12] = tested on: Peritoneal macrophage; assay: Antiinflammatory activity in ICR mouse primary peritoneal macrophages assessed as inhibition of LPS-induced TNF-alpha production pretreated for 2 hrs followed by LPS challenge measured after 22 hrs by ELISA; assay type: functional, cell-based
# [13] = tested on: Mus musculus; assay: Antiinflammatory activity in C57BL/6 mouse assessed as reduction in LPS-induced interstitial edema in lung at 10 mg/kg, iv pretreated for 15 mins followed by LPS challenge measured after 6 hrs by hematoxylin and eosin staining-based light microscopic analysis; assay type: functional, organism-based
# [14] = tested on: Peritoneal macrophage; assay: Antiinflammatory activity in ICR mouse primary peritoneal macrophages assessed as inhibition of LPS-induced IL-6 production at 10 uM pretreated for 2 hrs followed by LPS challenge measured after 22 hrs by ELISA relative to control; assay type: functional
# [15] = tested on: Mus musculus; assay: Antiinflammatory activity in C57BL/6 mouse assessed as reduction in LPS-induced total cell numbers in bronchoalveolar lavage fluid at 10 mg/kg, iv pretreated for 15 mins followed by LPS challenge measured after 6 hrs by flow cytometric analysis; assay type: functional, organism-based
# [16] = tested on: Mus musculus; assay: Antiinflammatory activity in C57BL/6 mouse assessed as reduction in LPS-induced IL-6 mRNA level in bronchoalveolar lavage fluid at 10 mg/kg, iv pretreated for 15 mins followed by LPS challenge measured after 6 hrs by qPCR analysis; assay type: functional, organism-based
IC50 [7],IC50 [12],SMILES,inhibition [7],inhibition [9],inhibition [12],inhibition [10],inhibition [14],also measured
4.18 µM,4.73 µM,COc1ccccc1/C=C/C(=O)/C=C/c1ccccc1Br,Dose-dependent effect,inactive,Dose-dependent effect,,,Activity [1]: Active; Activity [2]: Active; Activity [3]: Active; Activity [4]: Active; Activity [5]: Active; Activity [6]: Active; Activity [8]: Active; inhibition at 10 µM [10]: 97.6%; Activity [11]: Active; Activity [13]: Active; inhibition at 10 µM [14]: 99.6%; Activity [15]: Active; Activity [16]: Active
,,COc1cc(OC)c(/C=C/C(=O)/C=C/c2ccc(OC)c(OC)c2)c(OC)c1,,,,inactive,inactive,
3.62 µM,2.96 µM,COc1cccc(/C=C/C(=O)/C=C/c2ccc(O)c(Br)c2)c1OC,Dose-dependent effect,inactive,Dose-dependent effect,,,Activity [2]: Active
4.13 µM,3.71 µM,COc1ccccc1/C=C/C(=O)/C=C/c1ccc(O)c(Br)c1,Dose-dependent effect,inactive,Dose-dependent effect,,,
,,COc1ccc(/C=C2\CCC/C(=C\c3cccc(OC)c3OC)C2=O)c(F)c1,,,,inactive,inactive,
,,COc1cc(OC)c(/C=C/C(=O)/C=C/c2cccc(OC)c2OC)c(OC)c1,,,,inactive,inactive,
,,COc1cc(O)c(CC=C(C)C)c(O)c1C(=O)/C=C/c1ccc(O)cc1,,,,inactive,inactive,
